# Measurements taken from US12251411B2, “Methods of treating endometrial cancer using hemp extract” (Ecofibre USA Inc., priority 2021, dated 2025).
# Where two headings read alike, the source gives them in different places.
# Tests used:
# endometrial cancer = assay: Case of a patient with stage IV chemoresistant metastatic endometrial cancer (PET/CT follow up)
# Description: Soon after the experiments detailed above a person came to us. They were diagnosed with endometrial cancer after presenting with significant pain and discomfort. They had already undergone a total hysterectomy and bilateral salpingo-oophorectomy followed by five rounds of chemotherapy. Each of the first five rounds of chemotherapy was a combined chemotherapy with Paclitaxil/Carboplatin.
# See, Tables 3 and 4, below. […] As such, […] began standard protocol GemCap treatment in combination with a regime of 30 mg of BSHE twice daily via oral mucosal delivery and 75 mg of FSHE once daily via intravaginal delivery.
# [1] = test system: endometrial cancer patient derived organoids; assay: Viability of patient-derived endometrial cancer organoids treated with cannabis extracts (CellTiter-Glo); settings: for IC50: Homo sapiens; for viable organoids in words: 7 and 10 μg/mL
# Protocol: For this set of experiments, we obtained tissue samples from a new set of 12 patients, each having grade 1, grade 2, or grade 3 endometrial cancer. Cells from these patients were prepared as described in the Methods section below.
# (§1) Individual patient cell organoids were cultured separately in different plates.
# (§2) The same IC50 dose was given with each incremental dose of chemotherapeutic agent.
# [2] = test system: patient derived endometrial cancer tumors; assay: Patient-derived xenograft mice: change in endometrial cancer tumor volume with cannabis extracts alone; format: in vivo; settings: for decrease in average tumor volume vs day 0: day 10
# Protocol: Generally, EC stem cells from the same patients that participated in the organoid studies of FIG. 7, were injected into the mice, and allowed to grow. After tumors reached a certain size, the mice were either injected (3 times/week) with the extract-delivery vehicle or with the particular cannabis extract. After a certain amount of time elapsed, tumor size was measured. The details regarding patient-derived xenograft methodology and experimental protocol are provided in the Methods section.
# The % change is an average number taken from tumor volumes of three mice compared to the starting average tumor volume on day 0 of treatment. Change can either be positive (tumor increases in size) or negative (tumor decreases in size).
# (§3) Human patient cells from endometrial cancer were injected subcutaneously into female NOD/SCID gamma mice after resuspending in 100 μL solution. […] Tumor size was measured before treatment, followed by twice a week measurements. All treatment group mice were kept alive for up to 10 weeks after drug injection or until the tumor volume grows bigger than 2500 mm^3.
# [3] = test system: patient derived endometrial cancer organoids; assay: Patient-derived endometrial cancer organoid viability: chemotherapeutic agent alone or with IC50 dose of cannabis extract
# Protocol: To perform these experiments, we used cells from patient 4 (see, e.g., FIGS. 7A and 7C) to test grade 2 endometrial cancer and cells from patient 12 (see, e.g., FIGS. 7B-7D) to test grade 3 endometrial cancer. […] Methods concerning producing organoids from human tissue samples are provided in the Methods section at the end of this document.
# as §1, §2
# [4] = test system: organoids derived from ovarian cancer tissue; assay: Impact of pH on viability of ovarian cancer organoids treated with cannabis extracts; format: cell-based; settings: 10 μg/mL; pH 8
# Description: In this set of experiments, organoids were derived from ovarian cancer tissue.
# P-glycoprotein = P-glycoprotein (Homo sapiens, UniProt P08183); settings: in vitro; cited from earlier work
# Sequence of P-glycoprotein (P08183 whole entry): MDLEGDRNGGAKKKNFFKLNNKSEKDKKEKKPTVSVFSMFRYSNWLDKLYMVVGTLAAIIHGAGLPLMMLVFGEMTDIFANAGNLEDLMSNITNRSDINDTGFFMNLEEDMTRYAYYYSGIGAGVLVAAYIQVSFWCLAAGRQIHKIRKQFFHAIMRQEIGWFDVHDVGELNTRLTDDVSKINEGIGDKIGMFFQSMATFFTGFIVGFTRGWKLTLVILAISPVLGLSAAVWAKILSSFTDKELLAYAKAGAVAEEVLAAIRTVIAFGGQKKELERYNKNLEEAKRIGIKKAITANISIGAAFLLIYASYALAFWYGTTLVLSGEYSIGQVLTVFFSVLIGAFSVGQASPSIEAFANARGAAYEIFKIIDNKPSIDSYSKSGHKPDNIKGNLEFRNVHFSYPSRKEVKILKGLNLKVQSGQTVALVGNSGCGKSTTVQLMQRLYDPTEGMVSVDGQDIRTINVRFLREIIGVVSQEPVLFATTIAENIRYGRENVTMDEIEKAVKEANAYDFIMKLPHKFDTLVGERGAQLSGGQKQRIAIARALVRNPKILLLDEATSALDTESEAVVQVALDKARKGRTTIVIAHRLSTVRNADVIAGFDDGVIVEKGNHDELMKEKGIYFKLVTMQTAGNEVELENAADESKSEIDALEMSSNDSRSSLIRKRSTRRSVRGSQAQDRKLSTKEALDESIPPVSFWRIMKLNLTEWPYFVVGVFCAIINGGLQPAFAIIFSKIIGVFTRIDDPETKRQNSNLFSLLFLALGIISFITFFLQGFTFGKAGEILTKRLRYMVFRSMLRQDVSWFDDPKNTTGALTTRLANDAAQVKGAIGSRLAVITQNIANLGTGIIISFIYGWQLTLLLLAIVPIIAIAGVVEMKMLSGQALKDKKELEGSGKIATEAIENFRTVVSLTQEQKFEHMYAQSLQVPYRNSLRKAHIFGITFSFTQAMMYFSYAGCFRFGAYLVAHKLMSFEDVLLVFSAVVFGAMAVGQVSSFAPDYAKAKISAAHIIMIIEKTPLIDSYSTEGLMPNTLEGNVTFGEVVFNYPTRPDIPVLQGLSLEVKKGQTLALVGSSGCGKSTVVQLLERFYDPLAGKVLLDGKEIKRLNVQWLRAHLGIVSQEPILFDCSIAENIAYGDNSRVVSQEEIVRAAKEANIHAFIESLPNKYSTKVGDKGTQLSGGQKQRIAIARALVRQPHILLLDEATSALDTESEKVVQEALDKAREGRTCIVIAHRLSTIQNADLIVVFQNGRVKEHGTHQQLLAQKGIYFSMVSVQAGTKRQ
# CYP2C19 = CYP2C19 (Homo sapiens, UniProt P33261); settings: in vitro; cited from earlier work
# Sequence of CYP2C19 (P33261 whole entry, species assumed): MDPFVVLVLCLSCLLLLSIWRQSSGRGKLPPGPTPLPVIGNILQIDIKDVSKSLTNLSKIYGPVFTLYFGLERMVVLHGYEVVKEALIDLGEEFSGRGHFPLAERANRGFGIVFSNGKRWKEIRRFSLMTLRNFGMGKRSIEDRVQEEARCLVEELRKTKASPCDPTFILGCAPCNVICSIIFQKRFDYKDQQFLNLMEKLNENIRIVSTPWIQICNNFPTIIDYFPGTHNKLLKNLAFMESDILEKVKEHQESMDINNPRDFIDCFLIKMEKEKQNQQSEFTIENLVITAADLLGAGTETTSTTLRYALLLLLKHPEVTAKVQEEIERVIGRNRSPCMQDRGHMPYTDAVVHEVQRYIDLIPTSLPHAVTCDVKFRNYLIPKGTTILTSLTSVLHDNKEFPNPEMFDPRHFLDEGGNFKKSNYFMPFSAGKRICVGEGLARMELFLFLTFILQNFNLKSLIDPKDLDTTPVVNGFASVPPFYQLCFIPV
# [5] = cited from earlier work
# [6] = cited from earlier work; remark: listed apart in the source
# [7] = test system: patient derived endometrial cancer tumors; assay: Patient-derived xenograft mice: tumor volume with paclitaxel alone or combined with cannabis extract; format: in vivo
# Protocol: as §3
# [8] = test system: patient derived organoids; format: cell-based, human; settings: % of cells that died compared to control; organoids of the chemoresistant patient
# Protocol: In addition to the agents listed above, several other drugs were tested to see if they influenced organoid growth. In this case, results are shown as the % of cells that died compared to control. […] This is consistent with the patient's actual lack of response to treatment with paclitaxel.
# [9] = test system: organoids from the patient's endometrial cancer; assay: Response of organoids crafted from the patient's endometrial cancer to alternative chemotherapies and BSHE; format: cell-based, human; settings: chemoresistant stage IV endometrial cancer patient
# Description: See, Tables 3 and 4, below.
# [10] = read-out: IC50s for Patient 4 Organoids (Grade 2 Endometrial Cancer)
# [11] = read-out: IC50s for Patient 12 Organoids (Grade 3 Endometrial Cancer)
# [12] = day 14, 6 doses total of about 30 mg/kg
# [13] = before cannabis extract treatment
compound,measurement,setting,value
CCN1CCN(Cc2ccc(Nc3ncc(F)c(-c4cc(F)c5nc(C)n(C(C)C)c5c4)n3)nc2)CC1 [Abemaciclib],adverse effects of the patient's earlier treatment,"endometrial cancer; human, in vivo",severe adverse effects
"C=C(C)[C@@H]1CCC(C)=C[C@H]1c1c(O)cc(CCCCC)cc1O [CBD isolate, cannabidiol]",IC50,[1]; [10],3.09 µg/mL
same,IC50,[1]; [11],2.92 µg/mL
same,IC50,[1]; read-out: dose at which 50% viability of organoids was obtained,~3 µg/mL
same,viable organoids / response in words,"[1]; grade 1, 10 μg/mL",does not show complete response
same,response of organoids,"[1]; grade 1 lower responder patient, 15 and 20 μg/mL",complete response
same,viable organoids in words,[1]; grade 2,virtually zero
same,viable organoids in words,[1]; grade 3,virtually zero
same,dose at which 50% viability of organoids was obtained,[1]; grade 3 representative sample (FIG. 7),about 3 μg/mL
same,decrease in average tumor volume vs day 0,"[2]; about 30 mg/kg, 3 times/week",not as responsive
same,decrease in average tumor volume compared to starting size,[2]; [12],less than 50%
same,decrease in viable organoids compared to carboplatin alone,"[3]; patient 4, IC50 dose of extract + 100 μM/mL carboplatin",about 32%
same,decrease in the % of viable organoids when 4 nM/mL paclitaxel is combined with extract,"[3]; patient 12, grade 3, IC50 dose of extract + 4 nM/mL paclitaxel",up to 19%
same,efficacy compared to native pH,[4],virtually no change
same,P-glycoprotein-mediated drug transport,P-glycoprotein,significantly inhibits
same,inhibition of CYP2C19 enzymes,CYP2C19,potent inhibitor
same,dose with clinically significant drug interactions,[5]; current literature,20 mg/kg/day
same,doses established as well tolerated,"[5]; humans, chronic use","up to 1,500 mg/day"
same,dose with meaningful interactions with Warfarin,[5]; published case study,10 mg/kg
same,effect on peak plasma drug concentrations,[6]; coadministration of ketoconazole (CYP3A4 inhibitor),nearly doubled
same,effect on peak plasma concentrations,[6]; coadministration of rifampicin (CYP3A4 inducer),significantly reduced
same,increase of Cmax,[6]; coadministration with high fat food,up to 5 fold
same,Tmax,[6]; delivery via nasal mucosa,approximately 10 minutes
same,maximum plasma concentration (time),[6]; oral,2.5 to 5 h
same,"maximum plasma concentration (time), delayed in some individuals",[6]; oral,up to 6 hours
same,serum bioavailability,"[6]; orally delivered, consumed with CBDA",increase substantially
same,maximum plasma concentration (time),[6]; oromucosal or sublingual delivery,1.6 h
same,bioavailability,[6]; rectal suppository delivery,51-60%
"C=C(C)[C@@H]1CCC(C)=C[C@H]1c1c(O)cc(CCCCC)c(C(=O)O)c1O [CBDA, cannabidiolic acid]",response of organoids,[1]; 10 and 15 μg/mL,a strong response was not seen in all patient derived organoids
same,IC50,[1]; [10],12.1 µg/mL
same,IC50,[1]; [11],15.8 µg/mL
same,formation of viable organoids,"[1]; all patients, dosing up to 50 μg/mL",~0%
same,effect on organoid viability,[1]; lower doses,did not affect organoid viability
same,increase in average tumor volume vs day 0,"[2]; day 7, 3 doses of about 30 mg/kg, injected 3 times/week",greater than 30%
same,overall decrease in average tumor volume in three days,"[2]; day 7 to day 10, about 30 mg/kg, 3 times/week",greater than 60%
same,decrease in average tumor volume vs day 0,"[2]; about 30 mg/kg, 3 times/week",greater than 30%
same,decrease in average tumor volume compared to starting size,[2]; [12],70%
same,decrease in average tumor volume compared to starting size,"[2]; day 21, 9 doses total of about 30 mg/kg",~100%
same,increase in average tumor volume,"[7]; a few days before day 14, extract 30 mg/kg + paclitaxel 10 mg/kg",~40%
same,decrease in average tumor volume compared to paclitaxel alone,"[7]; day 14, extract 30 mg/kg + paclitaxel 10 mg/kg",~20%
same,bioavailability,[6]; consumed with other cannabinoids in FSHE vs equivalent dose of isolated CBDA,increased bioavailability
CC(=O)O[C@H]1C(=O)[C@@]2(C)[C@H]([C@H](OC(=O)c3ccccc3)[C@]3(O)C[C@H](OC(=O)[C@H](O)[C@@H](NC(=O)c4ccccc4)c4ccccc4)C(C)=C1C3(C)C)[C@]1(OC(C)=O)CO[C@@H]1C[C@@H]2O [Paclitaxel],% Cell Death,[8],39%
same,organoid viability,"[3]; human, 9 days, 4 nM/mL",about 30%
same,improvement of 20 nM/mL over the lower dose (4 nM/mL),"[3]; patient 4, grade 2, paclitaxel alone",about 12%
same,improvement in reducing % viable organoids between 4 nM/mL and 20 nM/mL,"[3]; patient 12, grade 3, paclitaxel alone",~5%
same,decrease in tumor volume,"[7]; paclitaxel alone 10 mg/kg, day 10",~37%
same,further change of tumor volume,"[7]; paclitaxel alone 10 mg/kg, day 10 to day 21",does not really change
Atezolizumab,adverse effects of the patient's earlier treatment,endometrial cancer; [13],severe adverse effects
same,outcome of the patient's earlier treatment,endometrial cancer; [13],failed
Paclitaxil/Carboplatin,outcome of the patient's earlier treatment,endometrial cancer; [13],ineffective
gemcitabine/capecitabine [GemCap],response of the patient's organoids,[9],partial response
